The text below walks through data of patent US12383551B2, “Methods and compositions for maintaining opioid efficacy in the treatment of pain” (East Carolina University, priority 2017, dated 2025).

Each structure is given as a SMILES string.

For one data set, the system named is sham or SCI animals. Briefly: Conditioned Place Preference (CPP), addictive potential. Particulars: for CPP to morphine: added to morphine at either dose (1.0 or 2.5 mg/kg), sham or SCI animals.
A further data set relates to sham animals. The data set is described as follows: Mechanical pain thresholds / analgesia in sham (healthy control) animals. The class given is in vivo, Long-Evans rats. The conditions noted are these: FIG. 2 Panel A, acute treatment. The protocol: (§1) Methods: 55 female, Long-Evans rats were tested for mechanical thresholds prior to receiving a spinal contusion (SCI) or sham surgery. Mechanical pain thresholds were measured 21-27 days post-surgery under the following conditions: Morphine alone (1.0 or 2.5 mg/kg); Morphine (1.0 or 2.5 mg/kg)+0.1 mg/kg Pramipexole (PRAM; D3R agonist); Morphine (2.5 mg/kg)+0.1 mg/kg SCH23390 (SCH: D1R antagonist); 0.1 mg/kg Pramipexole alone; 0.1 mg/kg SCH23390 alone. Conditioned Place Preference (CPP) to each drug combination was assessed to determine the addictive potential of that specific combination.
(§2) Mechanical thresholds were assessed in 3-5 month old female Long-Evans rats before and ˜21 days after a mild, traumatic SCI (contusion model). Thresholds were re-assessed after i.p. injection of: Morphine 1.0 mg/kg with and without 0.1 mg/kg pramipexole (PRAM) or Morphine 2.5 mg/kg with and without 0.1 mg/kg PRAM. Conditioned place preference was performed under each drug condition (5 days alternating drug/vehicle pairing, with testing on day 6). Western blotting determined expression of D3R, D1R and u-opioid receptor (MOR) in the lumbar spinal cord.

The subject of the next data set is SCI animals. The data set is described as follows: Mechanical pain thresholds / analgesia in animals with spinal cord injury (contusion model). The class given is in vivo, Long-Evans rats. The conditions noted are these: FIG. 2 Panel B. The method, then: as §1, §2
In data set [1] the test system is rat model of chronic neuropathic pain. The data set is described as follows: Pain withdrawal responses in a rat model of chronic neuropathic pain (pilot studies). The conditions noted are these: low-dose morphine. The class given is in vivo.

Method for sham or SCI animals: Methods: 55 female, Long-Evans rats were tested for mechanical thresholds prior to receiving a spinal contusion (SCI) or sham surgery. […] Conditioned Place Preference (CPP) to each drug combination was assessed to determine the addictive potential of that specific combination.
Mechanical thresholds were assessed in 3-5 month old female Long-Evans rats before and ˜21 days after a mild, traumatic SCI (contusion model). […] Conditioned place preference was performed under each drug condition (5 days alternating drug/vehicle pairing, with testing on day 6).

As to `CCCN[C@H]1CCc2nc(N)sc2C1` [PRAM, pramipexole], in the data set on sham or SCI animals, the CPP to morphine entry is “Neither PRAM nor SCH exacerbated CPP to morphine”.
`CN1CCc2cc(Cl)c(O)cc2[C@@H](c2ccccc2)C1` [SCH, SCH23390]: in the data set on sham or SCI animals, the CPP to morphine entry was “Neither PRAM nor SCH exacerbated CPP to morphine”.
Regarding `CN1CC[C@]23c4c5ccc(O)c4O[C@H]2[C@@H](O)C=C[C@H]3[C@H]1C5` [morphine], the analgesia result is “improves analgesia significantly” in the data set on sham animals and “neither morphine nor PRAM have any analgesic effect” in the data set with SCI animals. Besides, in data set [1], the “modulating pain withdrawal responses / opioid efficacy” value is “became ineffective”. The “analgesic effect after long-term application” value with animals (FIG. 3, long-term application, 2 weeks) is reported as “complete loss of analgesic effect after 2 weeks”. In addition, the “development of morphine tolerance” value in the data set with animals (parallel preliminary studies) is listed as “became tolerant”. Also, the “preference for the drug-paired chamber” value with sham or SCI animals (FIG. 4) is reported as “induces preference for the drug-paired chamber”.
